Reference: PubChem BioAssay (NCI)
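Protocol summary: plate cells (96-well), add compound at 5 concentrations, incubate 48 h, interpolate endpoints linearly. TGI is the concentration that stops growth completely.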

What was measured:
Test in all cases: NCI tumour cell line growth inhibition, 48 h
[1] = system: RXF 393 renal
[2] = system: KM12 colon
[3] = system: SK-OV-3 ovarian
[4] = system: MALME-3M melanoma
[5] = system: MDA-MB-231 breast
[6] = system: MOLT-4 leukemia
[7] = system: NCI-H460 lung
[8] = system: HCT-15 colon
[9] = system: EKVX NSCLC
[10] = system: SK-MEL-2 melanoma
[11] = system: A549 NSCLC
[12] = system: MCF7 breast
[13] = system: BT-549 breast
[14] = system: UACC-257 melanoma
[15] = system: SNB-19 CNS
[16] = system: HOP-92 NSCLC
[17] = system: OVCAR-3 ovarian
[18] = system: NCI-H23 lung
[19] = system: ACHN renal
[20] = system: SN12C renal
[21] = system: SK-MEL-28 melanoma
[22] = system: 786-0 renal
[23] = system: K-562 leukemia
[24] = system: HCT-116 colon
[25] = system: SF-539 CNS
[26] = system: SW-620 colon
[27] = system: CCRF-CEM leukemia
[28] = system: U251 CNS
[29] = system: PC-3 prostate
[30] = system: HS 578T breast
[31] = system: SF-295 CNS
[32] = system: A498 renal
[33] = system: UACC-62 melanoma
[34] = system: NCI-H226 lung
[35] = system: HCC-2998 colon
[36] = system: OVCAR-8 ovarian
[37] = system: SK-MEL-5 melanoma
[38] = system: M14 melanoma
[39] = system: SNB-75 CNS
[40] = system: IGROV1 ovarian
[41] = system: DU-145 prostate
[42] = system: OVCAR-5 ovarian
[43] = system: MDA-MB-435
[44] = system: LOX IMVI melanoma
[45] = system: TK-10 renal
[46] = system: HOP-62 NSCLC
[47] = system: T-47D breast
[48] = system: MDA-N
[49] = system: UO-31 renal
[50] = system: SF-268 CNS
[51] = system: RPMI-8226 leukemia
[52] = system: COLO 205 colon
[53] = system: SR leukemia
[54] = system: HL-60(TB) leukemia
[55] = system: CAKI-1 renal
[56] = system: OVCAR-4 ovarian
[57] = system: HT29 colon
[58] = system: NCI-H522 lung
[59] = system: NCI/ADR-RES ovarian

## CC1(C)CNCC(C)(OCc2ccccc2)C(=O)NC(C)(C)CNCC(C)(OCc2ccccc2)C(=O)N1 (stereo not drawn)
[1]
  TGI: > 10 µM
[2]
  TGI: > 10 µM
[3]
  TGI: > 10 µM
[4]
  TGI: > 10 µM
[5]
  TGI: > 10 µM
[6]
  TGI: > 10 µM
[7]
  TGI: > 10 µM
[8]
  TGI: > 10 µM
[9]
  TGI: > 10 µM
[10]
  TGI: > 10 µM
[11]
  TGI: > 10 µM
[12]
  TGI: > 10 µM
[13]
  TGI: > 10 µM
[14]
  TGI: > 10 µM
[15]
  TGI: > 10 µM
[16]
  TGI: 4.8 µM
[17]
  TGI: > 10 µM
[18]
  TGI: > 10 µM
[19]
  TGI: > 10 µM
[20]
  TGI: > 10 µM
[21]
  TGI: > 10 µM
[22]
  TGI: > 10 µM
[23]
  TGI: > 10 µM
[24]
  TGI: > 10 µM
[25]
  TGI: > 10 µM
[26]
  TGI: > 10 µM
[27]
  TGI: > 10 µM
[28]
  TGI: > 10 µM
[29]
  TGI: > 10 µM
[30]
  TGI: > 10 µM
[31]
  TGI: > 10 µM
[32]
  TGI: > 10 µM
[33]
  TGI: > 10 µM
[34]
  TGI: > 10 µM
[35]
  TGI: > 10 µM
[36]
  TGI: > 10 µM
[37]
  TGI: > 10 µM
[38]
  TGI: > 10 µM
[39]
  TGI: > 10 µM
[40]
  TGI: > 10 µM
[41]
  TGI: > 10 µM
[42]
  TGI: > 10 µM
[43]
  TGI: > 10 µM
[44]
  TGI: > 10 µM
[45]
  TGI: > 10 µM
[46]
  TGI: > 10 µM
[47]
  TGI: > 10 µM
[48]
  TGI: > 10 µM
[49]
  TGI: > 10 µM
[50]
  TGI: > 10 µM

## CCOC(=O)C(C(=O)OCC)=C1NC2(c3ccccc3Nc3ccccc32)C(C#N)S1 (stereo not drawn)
[1]
  TGI: 33 µM
[2]
  TGI: 19.2 µM
[3]
  TGI: 53.8 µM
[4]
  TGI: 29 µM
[6]
  TGI: 10.1 µM
[7]
  TGI: 15.2 µM
[8]
  TGI: 19.6 µM
[9]
  TGI: 47.2 µM
[10]
  TGI: 25.5 µM
[11]
  TGI: 20.9 µM
[12]
  TGI: 13.3 µM
[13]
  TGI: 27.5 µM
[51]
  TGI: 7.07 µM
[14]
  TGI: 36 µM
[15]
  TGI: 35.1 µM
[16]
  TGI: 15.6 µM
[17]
  TGI: 4.78 µM
[18]
  TGI: 16 µM
[19]
  TGI: 52.8 µM
[20]
  TGI: 18.9 µM
[21]
  TGI: 50.7 µM
[22]
  TGI: 23.8 µM
[23]
  TGI: 28.4 µM
[24]
  TGI: 27.6 µM
[52]
  TGI: 19.4 µM
[25]
  TGI: 23 µM
[26]
  TGI: 51.6 µM
[27]
  TGI: > 100 µM
[28]
  TGI: 24.5 µM
[29]
  TGI: 16.8 µM
[30]
  TGI: 46.3 µM
[31]
  TGI: 40 µM
[32]
  TGI: 29.2 µM
[33]
  TGI: 22 µM
[34]
  TGI: 26.2 µM
[53]
  TGI: 6.81 µM
[35]
  TGI: 17.1 µM
[54]
  TGI: 55.5 µM
[36]
  TGI: 30 µM
[37]
  TGI: 21.6 µM
[38]
  TGI: 19.8 µM
[39]
  TGI: 53.2 µM
[40]
  TGI: 25.6 µM
[41]
  TGI: 28.4 µM
[55]
  TGI: 53.7 µM
[42]
  TGI: 36.1 µM
[43]
  TGI: 20.6 µM
[56]
  TGI: 18.5 µM
[57]
  TGI: 17.8 µM
[44]
  TGI: 26.5 µM
[58]
  TGI: 29.2 µM
[45]
  TGI: 38.6 µM
[59]
  TGI: 28.8 µM
[46]
  TGI: 27 µM
[47]
  TGI: 25.5 µM
[48]
  TGI: 36.3 µM
[49]
  TGI: 25.3 µM
[50]
  TGI: 39 µM
